Measurements from publication PMC10729961, “Putative purine nucleoside interacting residues in the malaria parasite purine uptake transporter PfENT1 are critical for transporter function” (PLOS ONE, 2023).

What was measured:
[1] = tested on: purine auxotrophic yeast (ade2Δ, fui1Δ); test: 24-h adenosine-dependent growth assay; format: cell-based; design: key: Mutant strains that did not grow are indicated by (ng, no growth); conditions: ade2Δ strain
Method: (§1) The Bioscreen C (Model #: 61400PRO) machine was used to measure proliferation of yeast expressing either wild type or mutant PfENT1 in 24-h assays. Yeast strains were grown overnight in SDM media plus 1 mM adenine. Yeast were spun down and resuspended in sterile water. Yeast were added into wells of honeycomb plates specific for the Bioscreen C (Fisher Scientific Cat No. #NC9976780) to achieve a final OD600 of 0.05 in the total volume of 150 μl per well of yeast and media. […] Each trial contained technical triplicates of every sample. The honeycomb plates were placed in the Bioscreen C where they were shaken continuously on high for 24-h at 30°C. OD600 was measured every 15 min.
(§2) For calculating the doubling time, the formula used was: Dt=ln(2)/kwherek=thegrowthrate
(§3) The k was calculated in Excel using the OD600 values in the growth curve that represented exponential growth (OD600 between 0.2 and 0.6). Alternatively, this formula can also be used: Dt=ln(2)/([ln(OD2)−ln(OD1)]/t2−t1)

[2] = tested on: yeast expressing Q135C PfENT1; test: 24-h adenosine-dependent growth assay; format: cell-based; design: key: Mutant strains that did not grow are indicated by (ng, no growth)
Method: as §1, §2, §3

[3] = tested on: yeast expressing D287C PfENT1; test: 24-h adenosine-dependent growth assay; format: cell-based; design: key: Mutant strains that did not grow are indicated by (ng, no growth)
Method: as §1, §2, §3

[4] = tested on: yeast expressing S290C PfENT1; test: 24-h adenosine-dependent growth assay; format: cell-based; design: key: Mutant strains that did not grow are indicated by (ng, no growth)
Method: as §1, §2, §3

[5] = tested on: yeast expressing W53C PfENT1; test: 24-h adenosine-dependent growth assay; format: cell-based; design: key: Mutant strains that did not grow are indicated by (ng, no growth)
Method: as §1, §2, §3

[6] = tested on: yeast expressing R291C PfENT1; test: 24-h adenosine-dependent growth assay; format: cell-based; design: key: Mutant strains that did not grow are indicated by (ng, no growth)
Method: as §1, §2, §3

[7] = tested on: purine auxotrophic yeast (ade2Δ, fui1Δ); test: [3H]uridine uptake assay, competition with cold adenosine; format: cell-based; conditions: ade2Δ strain; cold adenosine vs [3H]uridine uptake, 15 min
Method: The radiolabeled uptake assay measures the ability of an unlabeled purine or pyrimidine substrate to inhibit the uptake of radiolabeled substrate into yeast via PfENT1 as previously described. Yeast strains containing PfENT1 (mutant or WT) were grown overnight in SDM media to a final OD600 between 0.2 and 0.5. Purine auxotrophic yeast used as a negative control were grown in YPD media. Yeast were spun down and washed three times with 15 mL phosphate buffered saline (PBS; 137 mM NaCl, 2.7 mM KCl, 10 mM KH2PO4, 10 mM Na2HPO4, pH 7.4). The final volume of yeast in PBS varied but it was diluted to a final OD600 = 0.2. […] For determination of minimal and maximal uptake, yeast strains were incubated without radioactivity or with radioactivity but no cold substrate competition, respectively. […] The amount of radioactivity in each well was measured by liquid scintillation counting using a 1450 MicroBeta TriLux (Perkin Elmer). The counts per minute (cpm) were recorded and technical triplicates were averaged. IC50 values were calculated, and statistical analysis was performed using GraphPad/Prism9 software. […]
Statistical significance was calculated using one-way analysis of variance (ANOVA) with GraphPad/Prism9 software. IC50 values were calculated using the non-linear regression dose-response inhibition log(inhibitor) vs normalized response program. […]

[8] = tested on: yeast expressing WT PfENT1; test: 24-h adenosine-dependent growth assay; format: cell-based; conditions: mean±SEM; for Avg. Doubling time (h) Adenosine growth assay 1 mM: 1 mM adenosine sole purine source; for Avg. Doubling time (h) Adenosine growth assay 2 mM: 2 mM adenosine sole purine source
Method: as §1, §2, §3

[9] = tested on: yeast expressing A134C PfENT1; test: 24-h adenosine-dependent growth assay; format: cell-based; conditions: mean±SEM
Method: as §1, §2, §3

[10] = tested on: yeast expressing V52C PfENT1; test: 24-h adenosine-dependent growth assay; format: cell-based; conditions: mean±SEM
Method: as §1, §2, §3

[11] = tested on: yeast expressing T136C PfENT1; test: 24-h adenosine-dependent growth assay; format: cell-based; conditions: mean±SEM
Method: as §1, §2, §3

[12] = tested on: yeast expressing S48C PfENT1; test: 24-h adenosine-dependent growth assay; format: cell-based; conditions: mean±SEM
Method: as §1, §2, §3

[13] = tested on: yeast expressing I137C PfENT1; test: 24-h adenosine-dependent growth assay; format: cell-based; conditions: mean±SEM
Method: as §1, §2, §3

[14] = tested on: yeast expressing S49C PfENT1; test: 24-h adenosine-dependent growth assay; format: cell-based; conditions: mean±SEM
Method: as §1, §2, §3

[15] = tested on: yeast expressing N51C PfENT1; test: 24-h adenosine-dependent growth assay; format: cell-based; conditions: mean±SEM
Method: as §1, §2, §3

[16] = tested on: yeast expressing L50C PfENT1; test: 24-h adenosine-dependent growth assay; format: cell-based; conditions: for Avg. Doubling time (h) Adenosine growth assay 1 mM: 1 mM adenosine sole purine source; for Avg. Doubling time (h) Adenosine growth assay 1 mM / Avg. Doubling time (h) Adenosine growth assay 2 mM: 24 h, mean±SEM; for Avg. Doubling time (h) Adenosine growth assay 2 mM: 2 mM adenosine sole purine source
Method: as §1, §2, §3

[17] = tested on: yeast expressing F288C PfENT1; test: 24-h adenosine-dependent growth assay; format: cell-based; conditions: mean±SEM
Method: as §1, §2, §3

[18] = tested on: yeast expressing L289C PfENT1; test: 24-h adenosine-dependent growth assay; format: cell-based; conditions: mean±SEM
Method: as §1, §2, §3

[19] = tested on: yeast expressing F286C PfENT1; test: 24-h adenosine-dependent growth assay; format: cell-based
Method: as §1, §2, §3

PfENT1 S49A = conditions: cited from earlier work
PfENT1 D287A [20] = conditions: yeast expressing D287A, Y190A background; cited from earlier work
PfENT1 D287A [21] = conditions: cited from earlier work
PfENT1 W53A [22] = conditions: cited from earlier work
PfENT1 Q135A [23] = conditions: yeast expressing Q135A, Y190A background; cited from earlier work
PfENT1 W53A [24] = conditions: yeast expressing W53A, Y190A background; cited from earlier work
PfENT1 Q135A [25] = conditions: cited from earlier work
PfENT1 R291A [26] = conditions: cited from earlier work
PfENT1 R291A [27] = conditions: yeast expressing R291A, Y190A background; cited from earlier work
[28] = 2 mM adenosine sole purine source
[29] = 1 mM adenosine sole purine source

Nc1ncnc2c1ncn2[C@@H]1O[C@H](CO)[C@@H](O)[C@H]1O [Adenosine, adenosine]
Avg. Doubling time (h) Adenosine growth assay 1 mM ([1]; 1 mM adenosine sole purine source, mean±SEM): ng | Avg. Doubling time (h) Adenosine growth assay 2 mM [1, 28]: ng | Avg. Doubling time (h) Adenosine growth assay 1 mM [2, 29]: ng | Avg. Doubling time (h) Adenosine growth assay 2 mM [2, 28]: ng | Avg. Doubling time (h) Adenosine growth assay 1 mM [3, 29]: ng | Avg. Doubling time (h) Adenosine growth assay 2 mM [3, 28]: ng | Avg. Doubling time (h) Adenosine growth assay 1 mM [4, 29]: ng | Avg. Doubling time (h) Adenosine growth assay 2 mM [4, 28]: ng | Avg. Doubling time (h) Adenosine growth assay 1 mM [5, 29]: ng | Avg. Doubling time (h) Adenosine growth assay 2 mM [5, 28]: ng | Avg. Doubling time (h) Adenosine growth assay 1 mM [6, 29]: ng | Avg. Doubling time (h) Adenosine growth assay 2 mM [6, 28]: ng | Average IC50 (μM) Adenosine [7]: no uptake | Avg. Doubling time (h) Adenosine growth assay 1 mM [8]: 3.13 ± 0.36 h | Avg. Doubling time (h) Adenosine growth assay 1 mM ([8]; listed as adenosine): 3.1 h | Avg. Doubling time (h) Adenosine growth assay 2 mM [8]: 3.72 ± 0.21 h | Avg. Doubling time (h) Adenosine growth assay 2 mM ([8]; listed as adenosine): 3.7 h | Avg. Doubling time (h) Adenosine growth assay 1 mM [9, 29]: 4.42 ± 0.25 h | Avg. Doubling time (h) Adenosine growth assay 2 mM [9, 28]: 4.09 ± 0.24 h | Avg. Doubling time (h) Adenosine growth assay 1 mM [10, 29]: 4.20 ± 0.23 h | Avg. Doubling time (h) Adenosine growth assay 2 mM [10, 28]: 3.78 ± 0.29 h | Avg. Doubling time (h) Adenosine growth assay 1 mM [11, 29]: 3.12 ± 0.27 h | Avg. Doubling time (h) Adenosine growth assay 2 mM [11, 28]: 3.06 ± 0.09 h | Avg. Doubling time (h) Adenosine growth assay 1 mM [12, 29]: 3.77 ± 0.17 h | Avg. Doubling time (h) Adenosine growth assay 2 mM [12, 28]: 3.68 ± 0.42 h | Avg. Doubling time (h) Adenosine growth assay 1 mM [13, 29]: 3.99 ± 0.50 h | Avg. Doubling time (h) Adenosine growth assay 2 mM [13, 28]: 3.5 ± 0.16 h | Avg. Doubling time (h) Adenosine growth assay 1 mM [14, 29]: 3.06 ± 0.28 h | Avg. Doubling time (h) Adenosine growth assay 2 mM [14, 28]: 2.99 ± 0.16 h | Avg. Doubling time (h) Adenosine growth assay 1 mM [15, 29]: 3.46 ± 0.26 h | Avg. Doubling time (h) Adenosine growth assay 2 mM [15, 28]: 3.89 ± 0.41 h | Avg. Doubling time (h) Adenosine growth assay 1 mM [16]: 5.83 ± 0.47 h | Avg. Doubling time (h) Adenosine growth assay 1 mM ([16]; listed as adenosine): 5.8 h | Avg. Doubling time (h) Adenosine growth assay 2 mM [16]: 7.16 ± 1.21 h | Avg. Doubling time (h) Adenosine growth assay 2 mM ([16]; listed as adenosine): 7.2 h | increase of doubling time compared to WT PfENT1 control ([16]; in both 1 mM and 2 mM adenosine): 1.9 fold | Avg. Doubling time (h) Adenosine growth assay 1 mM [17, 29]: 3.61 ± 0.60 h | Avg. Doubling time (h) Adenosine growth assay 2 mM [17, 28]: 3.57 ± 0.53 h | Avg. Doubling time (h) Adenosine growth assay 1 mM [18, 29]: 3.08 ± 0.25 h | Avg. Doubling time (h) Adenosine growth assay 2 mM [18, 28]: 3.12 ± 0.33 h | Avg. Doubling time (h) Adenosine growth assay 1 mM [19, 29]: slow growth | Avg. Doubling time (h) Adenosine growth assay 2 mM [19, 28]: slow growth

O=c1[nH]cnc2c1ncn2[C@@H]1O[C@H](CO)[C@@H](O)[C@H]1O [inosine]
inosine binding by ITC (PfENT1 S49A): did not bind | uptake of radioactive inosine (PfENT1 D287A [20]): did not show uptake | inosine binding by ITC (PfENT1 D287A [21]): did not bind | inosine binding by ITC (PfENT1 W53A [22]): bound with lower affinity | uptake of radioactive inosine (PfENT1 Q135A [23]): did not show uptake | uptake of radioactive inosine (PfENT1 W53A [24]): did not show uptake | inosine binding by ITC (PfENT1 Q135A [25]): did not bind | inosine binding by ITC (PfENT1 R291A [26]): bound with lower affinity | uptake of radioactive inosine (PfENT1 R291A [27]): did not show uptake
